Values quoted from earlier work, collected in patent publication US10500190B1, “Sublingual or buccal administration of melatonin and/or valerian” (priority 2019, dated 2019).

Key:
[1] = not given; remark: listed apart in the source

Structure (SMILES): COc1ccc2[nH]cc(CCNC(C)=O)c2c1 [melatonin, N-acetyl-5-methoxytrypta mine]
- variation of peak plasma concentrations (oral): over 20 fold
- time after administration for the blood plasma concentration of melatonin to reach its peak (oral preparations): more than 30 minutes
- solubility in water or other aqueous biological fluids [1]: poorly soluble
